According to ChEMBL document CHEMBL4665735, “Discovery of a d-pro-lys peptidomimetic inhibitor of MMP9: Addressing the gelatinase selectivity beyond S1' subsite” (Bioorg Med Chem Lett, 2020):

What was measured:
[1] = target: Matrix metalloproteinase-9 (Homo sapiens, UniProt P14780); experiment: Inhibition of MMP9 (unknown origin) using Mca-Lys-Pro-Leu-GlyLeu-Dpa-Ala-Arg-NH2 as substrate by fluorometric assay
[2] = target: 72 kDa type IV collagenase (Homo sapiens, UniProt P08253); experiment: Inhibition of MMP2 (unknown origin) using Mca-Lys-Pro-Leu-GlyLeu-Dpa-Ala-Arg-NH2 as substrate by fluorometric assay
Sequence of 72 kDa type IV collagenase (P08253 whole entry): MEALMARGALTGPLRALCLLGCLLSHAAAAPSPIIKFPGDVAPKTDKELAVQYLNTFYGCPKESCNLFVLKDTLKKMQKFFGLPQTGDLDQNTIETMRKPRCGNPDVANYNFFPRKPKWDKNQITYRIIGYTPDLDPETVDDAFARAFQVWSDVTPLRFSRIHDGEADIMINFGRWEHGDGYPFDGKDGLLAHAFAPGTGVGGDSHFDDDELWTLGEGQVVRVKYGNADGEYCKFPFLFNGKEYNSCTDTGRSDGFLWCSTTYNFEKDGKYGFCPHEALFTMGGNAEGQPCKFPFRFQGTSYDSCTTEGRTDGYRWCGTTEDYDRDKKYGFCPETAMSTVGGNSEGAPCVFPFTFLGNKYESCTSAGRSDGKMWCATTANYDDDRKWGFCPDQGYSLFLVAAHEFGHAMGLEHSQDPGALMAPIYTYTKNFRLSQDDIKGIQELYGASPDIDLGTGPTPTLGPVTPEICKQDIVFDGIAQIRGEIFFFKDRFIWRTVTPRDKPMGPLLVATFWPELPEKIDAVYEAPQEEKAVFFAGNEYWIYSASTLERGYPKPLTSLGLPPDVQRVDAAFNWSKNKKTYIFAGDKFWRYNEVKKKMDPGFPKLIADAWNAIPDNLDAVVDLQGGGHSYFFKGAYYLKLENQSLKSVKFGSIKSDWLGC

Sequence of Matrix metalloproteinase-9 (P14780 whole entry): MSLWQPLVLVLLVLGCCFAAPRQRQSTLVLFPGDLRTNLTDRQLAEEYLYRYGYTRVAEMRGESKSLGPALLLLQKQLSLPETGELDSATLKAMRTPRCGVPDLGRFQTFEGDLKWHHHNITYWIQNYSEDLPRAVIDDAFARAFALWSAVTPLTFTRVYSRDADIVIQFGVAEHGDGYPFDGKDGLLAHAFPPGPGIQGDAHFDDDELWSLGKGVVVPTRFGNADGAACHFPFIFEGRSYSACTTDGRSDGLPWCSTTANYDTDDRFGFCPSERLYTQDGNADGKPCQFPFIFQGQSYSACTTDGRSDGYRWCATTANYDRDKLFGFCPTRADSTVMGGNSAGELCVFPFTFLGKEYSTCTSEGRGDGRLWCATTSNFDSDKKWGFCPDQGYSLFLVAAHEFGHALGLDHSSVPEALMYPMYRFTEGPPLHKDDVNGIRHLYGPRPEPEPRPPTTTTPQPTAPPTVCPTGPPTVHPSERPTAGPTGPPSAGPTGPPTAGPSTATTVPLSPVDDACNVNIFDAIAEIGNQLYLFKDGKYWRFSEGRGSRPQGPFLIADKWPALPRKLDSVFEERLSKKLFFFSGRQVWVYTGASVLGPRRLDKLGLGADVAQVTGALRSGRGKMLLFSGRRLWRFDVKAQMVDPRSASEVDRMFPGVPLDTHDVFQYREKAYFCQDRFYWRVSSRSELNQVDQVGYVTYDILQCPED

SMILES | IC50 [1] | IC50 [2]
COc1ccc(S(=O)(=O)N2CCC[C@@H]2C(=O)NO)cc1 | 22 nM | 
CCCC[C@H](N)C(=O)N[C@@H]1C[C@H](C(=O)NO)N(S(=O)(=O)c2ccc(OC)cc2)C1 | 98 nM | 62 nM
CCCC[C@H](NC(=O)OC(C)(C)C)C(=O)N[C@@H]1C[C@H](C(=O)NO)N(S(=O)(=O)c2ccc(OC)cc2)C1 | 131 nM | 87 nM
COc1ccc(S(=O)(=O)N2C[C@H](NC(=O)CCCNC(=O)OC(C)(C)C)C[C@@H]2C(=O)NO)cc1 | 49 nM | 91 nM
COc1ccc(S(=O)(=O)N2C[C@H](NC(=O)[C@H](CCCCN)NC(=O)OC(C)(C)C)C[C@@H]2C(=O)NO)cc1 | 27 nM | 432 nM
COc1ccc(S(=O)(=O)N2C[C@H](NC(=O)[C@@H](N)CCCN)C[C@@H]2C(=O)NO)cc1 | 154 nM | 15 nM
COc1ccc(S(=O)(=O)N2C[C@H](NC(=O)CCCN)C[C@@H]2C(=O)NO)cc1 | 53 nM | 302 nM
COc1ccc(S(=O)(=O)N2C[C@H](NC(=O)[C@H](CCCN)NC(=O)OC(C)(C)C)C[C@@H]2C(=O)NO)cc1 | 3420 nM | 1320 nM
COc1ccc(S(=O)(=O)N2C[C@H](NC(=O)C(C)(C)C)C[C@@H]2C(=O)NO)cc1 | 13 nM | 26 nM
COc1ccc(S(=O)(=O)N2C[C@H](NC(=O)[C@@H](N)CCCCN)C[C@@H]2C(=O)NO)cc1 | 5.7 nM | 1260 nM
